Measurements as given in DBAASP.
Values after ≈ are worked out from the molar mass of the structure shown. Values joined by “and” are separate entries in the source; they are usually repeats but may differ in a detail not shown here. Identical values can stand only once.

Legend:
Test in all cases: ≥ marks a high value that may be exact or a test limit, other limits are often not marked, values filed in µg/mL are converted to µM
[1] = test system: Escherichia coli ATCC 25922
[2] = test system: Salmonella typhimurium KCTC 1926
[3] = test system: Pseudomonas aeruginosa ATCC 15692
Saccharomyces cerevisiae = test system: Saccharomyces cerevisiae
Pseudomonas aeruginosa = test system: Pseudomonas aeruginosa
Escherichia coli = test system: Escherichia coli
Proteus mirabilis = test system: Proteus mirabilis
Candida albicans = test system: Candida albicans
Salmonella typhimurium = test system: Salmonella typhimurium
[4] = test system: Staphylococcus epidermidis
Shigella dysenteriae = test system: Shigella dysenteriae
Serratia marcescens = test system: Serratia marcescens
Bacillus subtilis = test system: Bacillus subtilis
Micrococcus luteus = test system: Micrococcus luteus
[5] = test system: Salmonella enterica subsp. enterica serovar Typhimurium ATCC 14028
Bacillus megaterium = test system: Bacillus megaterium
Escherichia coli ML-35 = test system: Escherichia coli ML-35
[6] = test system: Staphylococcus aureus ATCC 25923
[7] = test system: Pseudomonas aeruginosa ATCC 27853
[8] = test system: Staphylococcus aureus ATCC 29213
[9] = test system: Enterococcus faecalis ATCC 29212
[10] = test system: Staphylococcus epidermidis ATCC 12228
[11] = test system: Bacillus subtilis CMCC 63501
Escherichia coli UB1005 = test system: Escherichia coli UB1005
[12] = test system: Salmonella enterica subsp. enterica serovar Pullorum C79-13
[13] = test system: Salmonella typhimurium ATCC 7731
[14] = test system: Staphylococcus aureus ATCC 43300
Escherichia coli ML-35p = test system: Escherichia coli ML-35p
[15] = test system: Micrococcus luteus ATCC 4698

| Structure (SMILES) | MIC [1] | MIC [7] [µM] | MIC [9] [µM] | MIC [10] [µM] | MIC [11] [µM] | MIC (Escherichia coli UB1005) [µM] | MIC [12] [µM] | MIC [13] [µM] | MIC [14] [µM] | further results |
| --- | --- | --- | --- | --- | --- | --- | --- | --- | --- | --- |
| CC[C@H](C)[C@H](NC(=O)[C@H](Cc1cnc[nH]1)NC(=O)[C@H](Cc1cnc[nH]1)NC(=O)[C@@H](NC(=O)[C@H](CC(C)C)NC(=O)[C@H](Cc1cnc[nH]1)NC(=O)CNC(=O)[C@H](C)NC(=O)CNC(=O)[C@H](Cc1cnc[nH]1)NC(=O)[C@@H](NC(=O)[C@@H](NC(=O)[C@H](CO)NC(=O)CNC(=O)[C@H](C)NC(=O)[C@H](Cc1ccccc1)NC(=O)[C@H](CCCN=C(N)N)NC(=O)[C@H](CC(C)C)NC(=O)[C@@H](N)Cc1ccccc1)C(C)C)[C@@H](C)CC)C(C)C)C(=O)NCC(=O)N[C@H](C(=O)N[C@@H](C)C(=O)N[C@@H](CC(C)C)C(N)=O)C(C)C [FLRFAGSVIHGAGHLVHHIGVAL] | 4 µM and 8 µM |  |  |  |  |  |  |  |  | MIC [2]: ≥ 64 µM; MIC [3]: ≥ 32 µM |
| CC[C@H](C)[C@H](NC(=O)CN)C(=O)N[C@@H](CC(C)C)C(=O)N[C@@H](CC(=O)O)C(=O)N[C@H](C(=O)N[C@@H](CC(C)C)C(=O)N[C@@H](CCCCN)C(=O)N[C@@H](CCC(N)=O)C(=O)N[C@@H](Cc1ccccc1)C(=O)N[C@@H](C)C(=O)N[C@@H](CCCCN)C(=O)NCC(=O)N[C@H](C(=O)NCC(=O)N[C@@H](CCCCN)C(=O)N[C@@H](CC(=O)O)C(=O)N[C@@H](CC(C)C)C(=O)N[C@H](C(=O)N[C@@H](CCCCN)C(=O)NCC(=O)N[C@@H](C)C(=O)N[C@@H](C)C(=O)N[C@@H](CCC(N)=O)C(=O)NCC(=O)N[C@H](C(=O)N[C@@H](CC(C)C)C(=O)N[C@@H](CO)C(=O)N[C@H](C(=O)N[C@H](C(=O)O)C(C)C)[C@@H](C)O)C(C)C)C(C)C)C(C)C)[C@@H](C)O [GILDTLKQFAKGVGKDLVKGAAQGVLSTV] |  |  |  |  |  |  |  |  |  | MIC (Saccharomyces cerevisiae): 8.58 µM (≈ 25 µg/mL); MIC (Pseudomonas aeruginosa): 8.58 µM (≈ 25 µg/mL); MIC (Escherichia coli): 8.58 µM (≈ 25 µg/mL); MIC (Proteus mirabilis): 17.2 µM (≈ 50 µg/mL); MIC (Candida albicans): > 34.3 µM; MIC (Salmonella typhimurium): 17.2 µM (≈ 50 µg/mL); MIC [4]: ≥ 34.3 µM; MIC (Shigella dysenteriae): 8.58 µM (≈ 25 µg/mL); MIC (Serratia marcescens): ≥ 34.3 µM; MIC (Bacillus subtilis): 17.2 µM (≈ 50 µg/mL); MIC (Micrococcus luteus): 0.858 µM (≈ 2.5 µg/mL) |
| CC[C@H](C)[C@H](NC(=O)[C@H](CCCCN)NC(=O)[C@H](CCCCN)NC(=O)[C@H](CC(C)C)NC(=O)[C@H](CCCCN)NC(=O)[C@H](CCC(=O)O)NC(=O)[C@H](CCCCN)NC(=O)[C@H](CCCCN)NC(=O)[C@H](CCCCN)NC(=O)[C@H](CC(N)=O)NC(=O)[C@H](CCCN=C(N)N)NC(=O)[C@H](Cc1ccccc1)NC(=O)[C@H](CCCCN)NC(=O)[C@H](CCCN=C(N)N)NC(=O)[C@H](CCCCN)NC(=O)[C@H](CCCN=C(N)N)NC(=O)[C@H](CCCCN)NC(=O)[C@H](CCCN=C(N)N)NC(=O)[C@H](CC(C)C)NC(=O)CN)C(=O)O [GLRKRKRKFRNKKKEKLKKI] | > 64 µM | > 64 |  |  |  |  |  |  |  | MIC [5]: > 64 µM; MIC (Bacillus megaterium): ≥ 64 µM; MIC (Escherichia coli ML-35): ≥ 64 µM; MIC [6]: > 64 µM |
| CC[C@H](C)[C@H](N)C(=O)N[C@@H](Cc1cnc[nH]1)C(=O)N[C@@H](CCCCN)C(=O)N[C@@H](Cc1ccccc1)C(=O)N[C@@H](Cc1c[nH]c2ccccc12)C(=O)N[C@@H](CCCN=C(N)N)C(=O)N[C@@H](CS)C(=O)N[C@@H](CCCN=C(N)N)C(=O)N[C@@H](CCCN=C(N)N)C(=O)N[C@@H](CCCN=C(N)N)C(=O)N[C@@H](Cc1ccccc1)C(=O)N[C@@H](CS)C(=O)N[C@@H](CCCN=C(N)N)C(=O)N[C@@H](Cc1c[nH]c2ccccc12)C(=O)N[C@@H](Cc1ccccc1)C(=O)N[C@@H](CCCCN)C(=O)N[C@@H](Cc1cnc[nH]1)C(=O)N[C@H](C(N)=O)[C@@H](C)CC [IHKFWRCRRRFCRWFKHI] |  | 8 (≈ 20.6 µg/mL) | 16 (≈ 41.2 µg/mL) | 8 (≈ 20.6 µg/mL) | 16 (≈ 41.2 µg/mL) | 8 (≈ 20.6 µg/mL) | 8 (≈ 20.6 µg/mL) | 8 (≈ 20.6 µg/mL) | 8 (≈ 20.6 µg/mL) | MIC [8]: 8 µM and 16 µM |
| CC[C@H](C)[C@H](N)C(=O)N[C@@H](Cc1cnc[nH]1)C(=O)N[C@@H](CCCCN)C(=O)N[C@@H](Cc1ccccc1)C(=O)N[C@@H](Cc1c[nH]c2ccccc12)C(=O)N[C@@H](CCCN=C(N)N)C(=O)N1CCC[C@H]1C(=O)NCC(=O)N[C@@H](CCCN=C(N)N)C(=O)N[C@@H](Cc1c[nH]c2ccccc12)C(=O)N[C@@H](Cc1ccccc1)C(=O)N[C@@H](CCCCN)C(=O)N[C@@H](Cc1cnc[nH]1)C(=O)N[C@H](C(N)=O)[C@@H](C)CC [IHKFWRPGRWFKHI] |  | 4 (≈ 7.63 µg/mL) | 8 (≈ 15.3 µg/mL) | 16 (≈ 30.5 µg/mL) | 8 (≈ 15.3 µg/mL) | 4 (≈ 7.63 µg/mL) | 4 (≈ 7.63 µg/mL) | 8 (≈ 15.3 µg/mL) | 16 (≈ 30.5 µg/mL) |  |
| CSCC[C@H](NC(=O)[C@@H](NC(=O)[C@@H](NC(=O)[C@H](CCCCN)NC(=O)[C@H](CC(C)C)NC(=O)[C@H](C)NC(=O)[C@H](CCCCN)NC(=O)[C@@H](NC(=O)[C@H](CC(C)C)NC(=O)[C@H](Cc1ccccc1)NC(=O)[C@H](CC(N)=O)NC(=O)[C@H](CCC(=O)O)NC(=O)[C@H](Cc1ccccc1)NC(=O)CNC(=O)[C@H](CC(C)C)NC(=O)[C@@H](N)CCCCN)C(C)C)[C@@H](C)O)C(C)C)C(=O)N[C@@H](Cc1cnc[nH]1)C(=O)N[C@H](C(=O)N1CCC[C@H]1C(=O)N[C@H](C(=O)N[C@@H](CO)C(=O)N1CCC[C@H]1C(=O)N[C@@H](CC(C)C)C(=O)N[C@@H](CC(C)C)C(N)=O)[C@@H](C)O)C(C)C [KLGFENFLVKALKTVMHVPTSPLL] | 16 µM (≈ 42.9 µg/mL) |  |  |  |  |  |  |  |  | MIC (Saccharomyces cerevisiae): ≥ 64 µM; MIC [3]: ≥ 256 µM; MIC [6]: > 256 µM; MIC (Micrococcus luteus): 4 µM (≈ 10.7 µg/mL) |
| CC(C)C[C@H](NC(=O)[C@H](CCCCN)NC(=O)[C@H](CCCCN)NC(=O)[C@H](Cc1ccccc1)NC(=O)[C@H](Cc1ccccc1)NC(=O)[C@H](CCCCN)NC(=O)[C@H](CCCCN)NC(=O)[C@H](Cc1ccccc1)NC(=O)[C@H](CCCN=C(N)N)NC(=O)[C@@H](N)CCCCN)C(=O)N[C@@H](CCCCN)C(=O)N[C@@H](CCCCN)C(=O)N[C@@H](Cc1ccccc1)C(=O)N[C@H](C(=O)N[C@@H](CCCCN)C(=O)N[C@@H](CCCCN)C(=O)NCC(=O)N[C@@H](Cc1ccccc1)C(=O)N[C@@H](CCCCN)C(=O)N[C@@H](CCCCN)C(=O)N[C@@H](Cc1ccccc1)C(=O)N[C@@H](C)C(=O)N[C@@H](CCCCN)C(=O)N[C@H](C(=O)O)C(C)C)C(C)C [KRFKKFFKKLKKFVKKGFKKFAKV] |  |  |  |  |  |  |  |  |  | MIC (Escherichia coli ML-35p): 1.98 µM and 0.989 µM |
| CC(C)C[C@H](NC(=O)[C@H](CCCNC(=N)N)NC(=O)CNC(=O)CNC(=O)[C@@H](N)CCCNC(=N)N)C(=O)N[C@@H](CS)C(=O)N[C@@H](Cc1ccc(O)cc1)C(=O)N[C@@H](CS)C(=O)N[C@@H](CCCNC(=N)N)C(=O)N[C@@H](CCCNC(=N)N)C(=O)N[C@@H](CCCNC(=N)N)C(=O)N[C@@H](Cc1ccccc1)C(=O)N[C@@H](CS)C(=O)N[C@H](C(=O)N[C@@H](CS)C(=O)N[C@H](C(=O)NCC(=O)N[C@@H](CCCNC(=N)N)C(N)=O)C(C)C)C(C)C [RGGRLCYCRRRFCVCVGR] |  | 16 (≈ 34.6 µg/mL) | 16 (≈ 34.6 µg/mL) | 16 (≈ 34.6 µg/mL) | 8 (≈ 17.3 µg/mL) | 2 (≈ 4.32 µg/mL) | 2 (≈ 4.32 µg/mL) | 8 (≈ 17.3 µg/mL) | 2 (≈ 4.32 µg/mL) |  |
| CC(C)C[C@H](NC(=O)[C@H](CCCN=C(N)N)NC(=O)[C@H](Cc1cnc[nH]1)NC(=O)[C@H](Cc1c[nH]c2ccccc12)NC(=O)CNC(=O)CNC(=O)[C@@H](N)CO)C(=O)N[C@@H](CCCN=C(N)N)C(=O)N[C@@H](CO)C(=O)O [SGGWHRLRS] |  |  |  |  |  |  |  |  |  | MIC [15]: ≥ 75 µM |
